Where a name gives a salt, the structure may show the parent alone.
Key:
S1P1 [1] = molecular target: T1, S1P1 (Homo sapiens, UniProt P21453); assay: S1P-1 β-Arrestin recruitment assay; format: cell-based; set-up: host or cells: PathHunter CHO-K1 EDG1 β-Arrestin cell line; settings: PathHunter CHO-K1 EDG1 β-Arrestin cell line, chemi-luminescence
Description: β-Arrestin recruitment assays were carried out using the PathHunter CHO-K1 EDG1 β-Arrestin cell line (DiscoveRx Corporation) in a chemi-luminescence detection assay. This cell line stably expresses β-Arrestin 2 and S1P1 fused to complementing portions of β-galactosidase (‘EA’ and ‘pro-link’, respectively) which associate upon Arrestin recruitment to form functional β-galactosidase enzyme.
Cells were grown to 80% confluency in Growth Medium (F12 nutrient HAMS supplemented with 10% heat-inactivated USA FBS, 1% L-glutamax, 800 m/ml Geneticin and 300 m/ml Hygromycin). Cells were harvested from the flask using Enzyme Free Cell Dissociation Buffer (Gibco) and washed from flasks with Optimem solution (Gibco). Cells were then centrifuged at 1000 rpm for 2-3 min and resuspended in Assay Buffer (Prepared from Sigma kit H1387 supplemented with 20 ml/L HEPES, 4.7 ml/L NaHCO3, 0.1% pluronic acid F-68 solution, 0.1% BSA and adjusted to pH 7.4 using sodium hydroxide at 1×10^6 cells/ml. Cells were dispensed into assay plates containing compounds (100n1/well of a solution of test compound in 100% DMSO) at 1×10^4 cells/well and incubated at 37° C./5% CO2 for 90 min followed by 15 min at room temperature. 5 μl detection mix (1 part Galacton Star, 5 parts Emerald II, 19 parts Assay Buffer; DiscoveRx) were added per well and the plates incubated at room temperature for 60 min. Luminescence was quantified using a Viewlux plate reader.

S1P1 [2] = molecular target: T1, S1P1; assay: S1P1 GTPγS assay; format: biochemical; set-up: expressed in transfected cells; host or cells: RH7777 cells (membranes); settings: tested in one of the above S1P1 assays (two protocols)
Description: The potencies and efficacies of the compounds of this invention for the S1P1 receptor can be determined by GTPγS assay performed on the human cloned receptor as described herein. […] All steps were performed at 4° C. Cells were homogenised within a glass Waring blender for 2 bursts of 15 secs in 200 mls of buffer (50 mM HEPES, 1 mM leupeptin, 25 m/ml bacitracin, 1 mM EDTA, 1 mM PMSF, 2 μM pepstatin A). The blender was plunged into ice for 5 mins after the first burst and 10-40 mins after the final burst to allow foam to dissipate. The material was then spun at 500 g for 20 mins and the supernatant spun for 36 mins at 48,000 g. The pellet was resuspended in the same buffer as above but without PMSF and pepstatin A. The material was then forced through a 0.6 mm needle, made up to the required volume, (usually ×4 the volume of the original cell pellet), aliquoted and stored frozen at—80° C. S1P1 expressing RH7777 membranes (1.5 μg/well) membranes (1.5 μg/well) were homogenised by passing through a 23G needle. These were then adhered to WGA-coated SPA beads (0.125 mg/well) in assay buffer (HEPES 20 mM, MgCl2, 10 mM, NaCl 100 mM and pH adjusted to 7.4 using KOH 5M). GDP 10 μM FAC and saponin 90 μg/ml FAC were also added After 30 minutes precoupling on ice, the bead and membrane suspension was dispensed into white Greiner polypropylene LV 384-well plates (5 μl/well), containing 0.1 μl of compound. 5 μl/well [^35S]-GTPγS (0.5 nM for S1P1 or 0.3 nM for S1P3 final radioligand concentration) made in assay buffer was then added to the plates. The final assay cocktail (10.1 μl) was then sealed, spun on a centrifuge, then read immediately on a Viewlux instrument. Alternatively, after 30 minutes precoupling on ice, the bead and membrane suspension was mixed with ^35S]-GTPγS (0.5 nM final radioligand concentration) in assay buffer (HEPES 20 mM, MgCl2 10 mM, NaCl 100 mM and pH adjusted to 7.4 using KOH 5M) in a 1:1 ratio. The bead, membrane and radioligand suspension was dispensed into white Greiner polypropylene low volume 384-well plates (10 μl/well), containing 0.1 μl of a solution of test compound in 100% DMSO. The final assay cocktail (10.1 μl) was then sealed, spun on a centrifuge, then read immediately on a Viewlux instrument.

[3] = clinical studies, first 24 hours of treatment; cited from earlier work
circulating lymphocytes = settings: animals and man; cited from earlier work

T1 sequence (P21453 whole entry, the tested form may be a part): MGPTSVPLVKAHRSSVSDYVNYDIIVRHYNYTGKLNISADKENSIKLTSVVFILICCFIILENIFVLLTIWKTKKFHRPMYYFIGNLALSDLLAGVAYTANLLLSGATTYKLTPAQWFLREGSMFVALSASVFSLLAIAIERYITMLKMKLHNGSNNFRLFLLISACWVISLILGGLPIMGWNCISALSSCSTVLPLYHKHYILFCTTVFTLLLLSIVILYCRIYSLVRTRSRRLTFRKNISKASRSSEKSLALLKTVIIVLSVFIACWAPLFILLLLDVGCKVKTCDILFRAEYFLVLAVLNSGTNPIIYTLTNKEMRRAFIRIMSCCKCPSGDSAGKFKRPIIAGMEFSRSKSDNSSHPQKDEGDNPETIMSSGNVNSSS

| SMILES | EC50 (S1P1 [1]) | also measured |
| --- | --- | --- |
| CC(C)Oc1ccc(-c2nnc(-n3cc4c(n3)CCN(CCC(=O)O)C4)s2)cc1C#N [Example 12, 3-[2-(5-{3-Cyano-4-[(1-methylethyl)oxy]phenyl}-1,3,4-thiadiazol-2-yl)-2,4,6,7-tetrahydro-5H-pyrazolo[4,3-c]pyridin-5-yl]propanoic acid] | ≤ 10 nM | EC50 (S1P1 [2]): ≤ 100 nM |
| Cc1c2c(nn1-c1nnc(-c3ccc(OC(C)C)c(Cl)c3)s1)CCN(CCC(=O)O)C2 [Example 2, 3-[2-(5-{3-Chloro-4-[(1-methylethyl)oxy]phenyl}-1,3,4-thiadiazol-2-yl)-3-methyl-2,4,6,7-tetrahydro-5H-pyrazolo[4,3-c]pyridin-5-yl]propanoic acid] | ≤ 10 nM | EC50 (S1P1 [2]): ≤ 10 nM |
| Cc1c2c(nn1-c1nnc(-c3ccc(OC(C)C)c(C#N)c3)s1)CCN(CCC(=O)O)C2 [Example 4, 3-[2-(5-{3-Cyano-4-[(1-methylethyl)oxy]phenyl}-1,3,4-thiadiazol-2-yl)-3-methyl-2,4,6,7-tetrahydro-5H-pyrazolo[4,3-c]pyridin-5-yl]propanoic acid trifluoroacetic acid salt] | ≤ 10 nM |  |
| CC(C)Oc1ccc(-c2nnc(-n3cc4c(n3)CCN(CCCC(=O)O)C4)s2)cc1Cl [Example 7, 4-[2-(5-{3-Chloro-4-[(1-methylethyl)oxy]phenyl}-1,3,4-thiadiazol-2-yl)-2,4,6,7-tetrahydro-5H-pyrazolo[4,3-c]pyridin-5-yl]butanoic acid] | ≤ 10 nM | EC50 (S1P1 [2]): ≤ 100 nM |
| Cc1c2c(nn1-c1nnc(-c3ccc(OC(C)C)c(C#N)c3)s1)CCNC2 [Example 3, 2-[(1-Methylethyl)oxy]-5-[5-(3-methyl-4,5,6,7-tetrahydro-2H-pyrazolo[4,3-c]pyridin-2-yl)-1,3,4-thiadiazol-2-yl]benzonitrile] | ≤ 100 nM |  |
| CCCCCCCCc1ccc(CCC(N)(CO)CO)cc1 [FTY720] |  | bradycardia [3]: results in bradycardia; effect on circulating lymphocytes (circulating lymphocytes): reduce circulating lymphocytes |
| CC(C)Oc1ccc(-c2nnc(-n3cc4c(n3)CCN(CCC(=O)O)C4)s2)cc1Cl [Example 8, 3-[2-(5-{3-Chloro-4-[(1-methylethyl)oxy]phenyl}-1,3,4-thiadiazol-2-yl)-2,4,6,7-tetrahydro-5H-pyrazolo[4,3-c]pyridin-5-yl]propanoic acid] | ≤ 10 nM | EC50 (S1P1 [2]): ≤ 100 nM |
| Cc1c2c(nn1-c1nnc(-c3ccc(OC(C)C)c(C#N)c3)s1)CCN(CCC(N)=O)C2 [Example 5, 3-[2-(5-{3-Cyano-4-[(1-methylethyl)oxy]phenyl}-1,3,4-thiadiazol-2-yl)-3-methyl-2,4,6,7-tetrahydro-5H-pyrazolo[4,3-c]pyridin-5-yl]propanamide] | ≤ 10 nM |  |

More lines, main results first:

| EC50 (S1P1 [1]) | SMILES | also measured |
| --- | --- | --- |
| ≤ 10 nM | Cc1c2c(nn1-c1nnc(-c3ccc(OC(C)C)c(C#N)c3)s1)CCN(C(=O)CNCCO)C2 [Example 35, 5-(5-{5-[N-(2-hydroxyethyl)glycyl]-3-methyl-4,5,6,7-tetrahydro-2H-pyrazolo[4,3-c]pyridin-2-yl}-1,3,4-thiadiazol-2-yl)-2-[(1-methylethyl)oxy]benzonitrile] |  |
| ≤ 10 nM | Cc1c2c(nn1-c1nnc(-c3ccc(OC(C)C)c(C#N)c3)s1)CCN(C(CO)CO)C2 [Example 25, 5-(5-{5-[2-hydroxy-1-(hydroxymethyl)ethyl]-3-methyl-4,5,6,7-tetrahydro-2H-pyrazolo[4,3-c]pyridin-2-yl}-1,3,4-thiadiazol-2-yl)-2-[(1-methylethyl)oxy]benzonitrile] |  |
| ≤ 10 nM | CC(C)Oc1ccc(-c2nnc(-n3cc4c(n3)CCN(CCCC(=O)O)C4)s2)cc1C#N [Example 13, 4-[2-(5-{3-Cyano-4-[(1-methylethyl)oxy]phenyl}-1,3,4-thiadiazol-2-yl)-2,4,6,7-tetrahydro-5H-pyrazolo[4,3-c]pyridin-5-yl]butanoic acid] |  |
| ≤ 10 nM | Cc1c2c(nn1-c1nnc(-c3ccc(OC(C)C)c(C#N)c3)s1)CCN(C(=O)CNC(CO)CO)C2 [Example 36, 5-[5-(5-{N-[2-hydroxy-1-(hydroxymethyl)ethyl]glycyl}-3-methyl-4,5,6,7-tetrahydro-2H-pyrazolo[4,3-c]pyridin-2-yl)-1,3,4-thiadiazol-2-yl]-2-[(1-methylethyl)oxy]benzonitrile] |  |
| ≤ 10 nM | Cc1c2c(nn1-c1nnc(-c3ccc(OC(C)C)c(C#N)c3)s1)CCN(C(=O)CNC[C@H](O)CO)C2 [Example 34, 5-[5-(5-{N-[(2S)-2,3-dihydroxypropyl]glycyl}-3-methyl-4,5,6,7-tetrahydro-2H-pyrazolo[4,3-c]pyridin-2-yl)-1,3,4-thiadiazol-2-yl]-2-[(1-methylethyl)oxy]benzonitrile] |  |
| ≤ 100 nM | CC(C)Oc1ccc(-c2nnc(-n3ncc4c3CCN(CCC(=O)O)C4)s2)cc1Cl [Example 15, 3-[1-(5-{3-Chloro-4-[(1-methylethyl)oxy]phenyl}-1,3,4-thiadiazol-2-yl)-1,4,6,7-tetrahydro-5H-pyrazolo[4,3-c]pyridin-5-yl]propanoic acid] |  |
| ≤ 10 nM | COC(=O)[C@H](O)CN1CCc2nn(-c3nnc(-c4ccc(OC(C)C)c(Cl)c4)s3)c(C)c2C1 [Example 41, methyl (2R)-3-[2-(5-{3-chloro-4-[(1-methylethyl)oxy]phenyl}-1,3,4-thiadiazol-2-yl)-3-methyl-2,4,6,7-tetrahydro-5H-pyrazolo[4,3-c]pyridin-5-yl]-2-hydroxypropanoate] |  |
| ≤ 10 nM | Cc1c2c(nn1-c1nnc(-c3ccc(OC(C)C)c(C#N)c3)s1)CCN(C[C@H](O)CO)C2 [Example 26, 5-(5-{5-[(2S)-2,3-dihydroxypropyl]-3-methyl-4,5,6,7-tetrahydro-2H-pyrazolo[4,3-c]pyridin-2-yl}-1,3,4-thiadiazol-2-yl)-2-[(1-methylethyl)oxy]benzonitrile] |  |
| ≤ 100 nM | Cc1c2c(nn1-c1nnc(-c3ccc(OC(C)C)c(C#N)c3)s1)CCN(C(=O)CNC[C@H](C)O)C2 [Example 33, 5-[5-(5-{N-[(2S)-2-hydroxypropyl]glycyl}-3-methyl-4,5,6,7-tetrahydro-2H-pyrazolo[4,3-c]pyridin-2-yl)-1,3,4-thiadiazol-2-yl]-2-[(1-methylethyl)oxy]benzonitrile] |  |
| ≤ 10 nM | Cc1c2c(nn1-c1nnc(-c3ccc(OC(C)C)c(C#N)c3)s1)CCN(C(=O)CN[C@H](C)CO)C2 [Example 30, 5-[5-(5-{N—[(1R)-2-hydroxy-1-methylethyl]glycyl}-3-methyl-4,5,6,7-tetrahydro-2H-pyrazolo[4,3-c]pyridin-2-yl)-1,3,4-thiadiazol-2-yl]-2-[(1-methylethyl)oxy]benzonitrile] |  |
| ≤ 100 nM | Cc1c2c(nn1-c1nnc(-c3ccc(OC(C)C)c(Cl)c3)s1)CCN(C[C@H](O)CO)C2 [Example 42, (2S)-3-[2-(5-{3-chloro-4-[(1-methylethyl)oxy]phenyl}-1,3,4-thiadiazol-2-yl)-3-methyl-2,4,6,7-tetrahydro-5H-pyrazolo[4,3-c]pyridin-5-yl]-1,2-propanediol formic acid salt] |  |

Reference: US20120101086A1, “THIADIAZOLE DERIVATIVES AND THEIR USE FOR THE TREATMENT OF DISORDERS MEDIATED BY S1P1 RECEPTORS” (GLAXO GROUP LIMITED, priority 2009, published 2012)
